Assay results published in EP4595972A1, “PEPTIDE FOR TREATING OR PREVENTING 4R TAUOPATHY” (GemVax & KAEL Co., Ltd., priority 2022, dated 2024).

Tested on: human Tau-BiFC (hTau-VN173, hTau-VC155)
Experiment: Tau immunoblot of brain lysate, soluble fraction, hTau
Format: in vivo, mouse
Settings: LMTM 15 mg/kg oral vs. vehicle; decrease (in parentheses)
Description: • (1) After completing administration, the mice of TauP301L-BiFC mouse model were anesthetized, followed by preparing heart laparotomy. • (2) Saline was introduced to the heart of each mouse in the TauP301L-BiFC mouse model, followed by removing vivo blood using a perfusion pump machine. • (3) After removing the blood, the brain was extracted and weighed. • (4) 1 mL RIPA buffer (w/protease/phosphatase inhibitor cocktail) was added to the extracted brain, followed by homogenization. • (5) After moving the homogenized brain lysate to an ep-tube, it was subjected to incubation in 4°C orbital shaker for 2 hours. • (6) After centrifugation at 4°C with a speed of 13,000 rpm for 20 minutes, the supernatant (soluble fraction) was collected in a new ep-tube and stored at -80°C • (7) In order to prepare an immunoblot sample, the concentration of a soluble fraction sample was quantified by Bradford protein quantification method. • (8) To each sample, RIPA buffer and 4X SDS Laemmli sample buffer (w/ 2.5% β-mercaptoethanol for reducing condition) were added to reach a final concentration of 2 mg/mL. • (9) The sample was boiled at 97°C for 5 minutes. […]

## CN(C)c1ccc2c(c1)Sc1cc(N(C)C)ccc1N2.CS(=O)(=O)O.CS(=O)(=O)O [LMTM]
  Soluble fraction, Phosphorylated tau, hTau (pS199): (20%)
  Soluble fraction, Phosphorylated tau, hTau (pS396): (23%)
  Soluble fraction, Total tau, hTau: (20%)
